Converted amounts (≈) assume the structure as drawn. Read-outs that look alike come from different tables or passages of the source.

Broadly, the ED50 is the dose that gives a 50% effect, or the effect in half of the subjects.

For experiment [1], the system named is S.abortivoequina. The experiment is described as follows: in vitro MIC by serial dilution, S.abortivoequina. It counts as cell-based. Particulars: Salmonella, read-out: MIC (minimal inhibitory concentration). On the procedure:
(§1) A series of comparative tests was carried out in vitro with the method of serial dilutions in Penassay Seed Broth Difco inoculated with 10^4 bacteria/ml (overnight cultures).
(§2) Table 1 below reports the results of the above assays as MIC (minimal inhibitory concentration, mcg/ml).

The subject of experiment [2] is Staphylococcus aureus. Put plainly: in vivo therapeutic activity on mice experimentally infected with Staphylococcus aureus. The arrangement: species or system male Swiss Cobs albino mice. Particulars: Staphylococcus aureus, sc, 168 h, Table 2, 2 LD50/mouse i.p., subcutaneous treatment 4 h after infection, 7 days, read-out: ED50 (dose effective in curing 50% of the infected mice). On the procedure:
(§3) In vivo tests for therapeutic activity were carried out on mice experimentally infected with Staphylococcus aureus and Salmonella abortivoequina (Infective dose: 2 LD50 /mouse i.p.); groups of 6 male Swiss Cobs albino mice were used. The infected animals were treated by the subcutaneous route 4 h after infection. The mortality rate was recorded every day for 7 days. The activity was assessed as ED50 (Dose effective in curing 50% of the infected mice as mg/Kg--see Reed and Muench, Am. J. Hyg. 27, 493, 1938.)

Experiment [3] concerns S.aureus. Put plainly: in vitro MIC by serial dilution, S.aureus. It counts as cell-based, Staphylococcus aureus. As to conditions: Staphylococcus aureus; S.aureus; serial dilutions in Penassay Seed Broth Difco, 10^4 bacteria/ml; read-out: MIC (minimal inhibitory concentration). As to the method:
as §1, §2

Experiment [4] has as its system E.coli B. The experiment is described as follows: in vitro MIC by serial dilution, E.coli B. It counts as cell-based. As to conditions: Escherichia coli; E.coli B; serial dilutions in Penassay Seed Broth Difco, 10^4 bacteria/ml; read-out: MIC (minimal inhibitory concentration). On the procedure: as §1, §2
Experiment [5] relates to P.mirabilis. The experiment is described as follows: in vitro MIC by serial dilution, P.mirabilis. Format: cell-based. Particulars: Proteus mirabilis, read-out: MIC (minimal inhibitory concentration). On the procedure: as §1, §2
Experiment [6] concerns S.typhimurium. Put plainly: in vitro MIC by serial dilution, S.typhimurium. It counts as cell-based. Particulars: Salmonella enterica, read-out: MIC (minimal inhibitory concentration). On the procedure: as §1, §2
Experiment [7] deals with Salmonella abortivoequina. Put plainly: in vivo therapeutic activity on mice experimentally infected with Salmonella abortivoequina. Also on record: species or system male Swiss Cobs albino mice. Particulars: sc, 168 h. On the procedure:
as §3

The test system of experiment [8] is S.flexneri. The experiment is described as follows: in vitro MIC by serial dilution, S.flexneri. It counts as cell-based. Particulars: Shigella flexneri; S.flexneri; serial dilutions in Penassay Seed Broth Difco, 10^4 bacteria/ml; read-out: MIC (minimal inhibitory concentration). On the procedure: as §1, §2
Experiment [9] relates to K.pneumoniae. Put plainly: in vitro MIC by serial dilution, K.pneumoniae. As to conditions: Klebsiella pneumoniae, read-out: MIC (minimal inhibitory concentration). Format: cell-based. As to the method:
as §1, §2

Experiment [10] deals with S.pyogenes. Put plainly: in vitro MIC by serial dilution, S.pyogenes. As to conditions: Streptococcus pyogenes, read-out: MIC (minimal inhibitory concentration). Format: cell-based. On the procedure:
as §1, §2

Setting [11] is: S.abortivoequina, serial dilutions in Penassay Seed Broth Difco, 10^4 bacteria/ml.
Setting [12] is: P.mirabilis, serial dilutions in Penassay Seed Broth Difco, 10^4 bacteria/ml.
The mark [13] stands for this setting: S.typhimurium, serial dilutions in Penassay Seed Broth Difco, 10^4 bacteria/ml.
Setting [14] is: mice infected with Salmonella abortivo equina, subcutaneous 4 h after infection, read-out: ED50.
The mark [15] stands for this setting: K.pneumoniae, serial dilutions in Penassay Seed Broth Difco, 10^4 bacteria/ml.
Setting [16] is: S.pyogenes, serial dilutions in Penassay Seed Broth Difco, 10^4 bacteria/ml.

On to `COc1cncc(SCC2=C(C(=O)O)N3C(=O)C(NC(=O)Cc4cccs4)C3SC2)n1` (stereo not drawn) [Compound 321, 7-(2-Thienyl)-acetamido-3-(6-methoxypyrazin-2-ylthiomethyl)-3-cephem-4-carboxylic acid], for which the MIC was determined as 20 µg/mL (≈ 41.8 µM) in [1] (setting [11]); 0.037 µg/mL (≈ 0.0773 µM) in experiment [3]; 1.25 µg/mL (≈ 2.61 µM) in experiment [4]; 10 µg/mL (≈ 20.9 µM) in [5] (setting [12]); 20 µg/mL (≈ 41.8 µM) in [6] (setting [13]); 10 µg/mL (≈ 20.9 µM) in experiment [8]. For the same molecule, the MIC came to 0.25 µg/mL (≈ 0.522 µM) in experiment [9] (setting [15]) and 0.12 µg/mL (≈ 0.251 µM) in [10] (setting [16]). In addition, the ED50 in experiment [2] is 15 mg/kg; in experiment [7] (setting [14]) it was 50 mg/kg.
Turning to `CC(=O)OCC1=C(C(=O)O)N2C(=O)[C@@H](NC(=O)Cc3cccs3)[C@H]2SC1` [cephalothin, reference compound], the MIC turned out to be 1.5 µg/mL (≈ 3.78 µM) in experiment [1]; 0.1 µg/mL (≈ 0.252 µM) in [3]; 1.25 µg/mL (≈ 3.15 µM) in experiment [4]; 6.2 µg/mL (≈ 15.6 µM) in [5]; 3 µg/mL (≈ 7.57 µM) in experiment [6] (TYPHIMURIUM); 1.5 µg/mL (≈ 3.78 µM) in [8]. The MIC in [9] stood at 0.3 µg/mL (≈ 0.757 µM); in [10], 1.25 µg/mL (≈ 3.15 µM). The values for the median effective dose (ED50) in [2] and in experiment [7] (Salmonella) were 30 mg/kg and 50 mg/kg, respectively.
Regarding `Cc1nnc(SCC2=C(C(=O)O)N3C(=O)[C@@H](NC(=O)Cn4cnnn4)[C@H]3SC2)s1` [cephazolin, reference compound], the MIC in experiment [1] (setting [11]) amounted to 1.25 µg/mL (≈ 2.75 µM); in experiment [3], 0.1 µg/mL (≈ 0.22 µM); in [4] it was 1.25 µg/mL (≈ 2.75 µM); in [5] (setting [12]) it was 3.1 µg/mL (≈ 6.82 µM); in experiment [6] (setting [13]) it was 1.5 µg/mL (≈ 3.3 µM); in experiment [8] it was 1.5 µg/mL (≈ 3.3 µM). Also, the results for the MIC in experiment [9] (setting [15]) and in experiment [10] (setting [16]) were 0.6 µg/mL (≈ 1.32 µM) and 1.25 µg/mL (≈ 2.75 µM), respectively. The figures for the median effective dose (ED50) in experiment [2] and in experiment [7] (setting [14]) were 30 mg/kg and 25 mg/kg, respectively.
